Laboratory results reported in ChEMBL document CHEMBL1201862, “PubChem BioAssay data set” (2004).
Activity calls are given as the source filed them.

Assays:
Beta-lactamase [1] = target: Beta-lactamase (Salmonella choleraesuis (strain SC-B67), UniProt Q5J463); assay: Epi-absorbance-based counterscreen for selective VIM-2 inhibitors: dose response biochemical high throughput screening assay to identify inhibitors of TEM-1 serine-beta-lactamase.
Beta-lactamase [2] = target: T1, Beta-lactamase (Pseudomonas aeruginosa, UniProt Q79MP6); assay: inhibition of IMP-1 beta-lactamase activity – biochemical, epi-absorbance, selectivity assay for VIM-2 inhibitor project, dose response (AID 1920)
T1 sequence (Q79MP6 whole entry): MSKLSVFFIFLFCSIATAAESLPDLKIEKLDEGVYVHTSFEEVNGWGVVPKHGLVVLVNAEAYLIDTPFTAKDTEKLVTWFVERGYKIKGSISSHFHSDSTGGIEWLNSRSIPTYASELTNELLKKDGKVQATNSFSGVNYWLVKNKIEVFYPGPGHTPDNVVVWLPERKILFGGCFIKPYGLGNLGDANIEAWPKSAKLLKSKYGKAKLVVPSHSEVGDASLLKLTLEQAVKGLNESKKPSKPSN

Beta-lactamase [3] = target: T1, Beta-lactamase; assay: […] counterscreen for selective VIM-2 inhibitors: dose response biochemical high throughput screening assay to identify inhibitors of IMP-1 metallo-beta-lactamase.
[4] = target: T2, Adenosylmethionine-8-amino-7-oxononanoate aminotransferase (Mycobacterium tuberculosis, UniProt P9WQ81); assay: Mycobacterium tuberculosis BioA enzyme inhibitor Measured in Biochemical System Using Plate Reader - 2163-02_Inhibitor_Dose_CherryPick_Activity.; format: functional, Mycobacterium tuberculosis UT205
T2 sequence (P9WQ81 whole entry): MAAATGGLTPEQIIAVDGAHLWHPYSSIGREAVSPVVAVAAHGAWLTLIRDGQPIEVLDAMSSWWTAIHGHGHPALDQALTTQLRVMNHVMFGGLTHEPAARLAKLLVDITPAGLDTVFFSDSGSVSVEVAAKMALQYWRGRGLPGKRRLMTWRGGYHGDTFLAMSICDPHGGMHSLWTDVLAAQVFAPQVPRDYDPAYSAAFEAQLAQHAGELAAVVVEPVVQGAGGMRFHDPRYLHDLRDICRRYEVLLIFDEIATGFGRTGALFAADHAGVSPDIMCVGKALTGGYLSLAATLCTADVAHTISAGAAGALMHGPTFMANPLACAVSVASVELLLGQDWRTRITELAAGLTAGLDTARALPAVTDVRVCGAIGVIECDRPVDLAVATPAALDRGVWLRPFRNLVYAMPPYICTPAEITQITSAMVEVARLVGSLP

[5] = system: Streptococcus sp. 'group A'; assay: Streptococcus pyogenes SK(-)GAS viability under kanamycin – luminescence, BacTiterGlo, confirmation, counter-screen for streptokinase expression inhibitor project, dose response (AID 1900); format: functional, organism-based
Streptokinase A = target: T3, Streptokinase A (Streptococcus pyogenes serotype M1, UniProt P10520); assay: viability-normalized secreted streptokinase activity reduction – plasminogen activation absorbance, OD405, dose response (AID 1914); format: functional, Streptococcus pyogenes M1 GAS;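 further: secreted streptokinase activity via plasminogen activation per viability signal from cell pellet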
T3 sequence (P10520 whole entry): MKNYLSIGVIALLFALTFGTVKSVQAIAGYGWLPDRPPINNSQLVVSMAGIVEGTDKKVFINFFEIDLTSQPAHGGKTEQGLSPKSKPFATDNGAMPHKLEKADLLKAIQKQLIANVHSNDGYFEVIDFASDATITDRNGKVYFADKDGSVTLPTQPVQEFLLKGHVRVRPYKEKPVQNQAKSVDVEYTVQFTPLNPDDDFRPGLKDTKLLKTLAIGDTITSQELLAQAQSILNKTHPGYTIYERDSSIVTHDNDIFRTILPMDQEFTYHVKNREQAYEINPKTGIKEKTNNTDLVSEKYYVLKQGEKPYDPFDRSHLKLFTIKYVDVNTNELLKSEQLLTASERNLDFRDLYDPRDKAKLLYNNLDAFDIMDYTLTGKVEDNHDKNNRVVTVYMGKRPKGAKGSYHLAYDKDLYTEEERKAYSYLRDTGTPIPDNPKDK

[6] = Trypanosoma cruzi growth suppression in host cells – NIH3T3 host cells, beta-gal luminescence, confirmation (AID 2044); format: functional, cell-based;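 further: intracellular parasites grown in NIH/3T3 mouse fibroblasts as host cells; luminescent beta-galactosidase reporter signal from transgenic T. cruzi replicating inside host cells; inhibitors lower the luminescence signal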
[7] = NIH3T3 cell viability loss – ATP luminescence, mouse fibroblasts, counter-screen, dose response (AID 2010); format: functional, cell-based;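 further: cells exposed to compound for about 90 hours before reading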
Streptococcus = assay: GAS UMAA2166 growth inhibition – luminescence, BacTiterGlo, counter-screen for streptokinase expression inhibitor project, dose response (AID 1915); format: functional, organism-based;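 further: potency for reduction of bacterial viability or growth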
[8] = Luminescence Cell-Based Dose Retest to Confirm Inhibitors of Cancer Stem Cells. [Related pubchem assays (depositor defined):AID2717, AID2721]; format: functional; conditions: Homo sapiens
INS1 = assay: INS-1E survival protection against cytokine death – cell-based, luminescence, retest, dose response (AID 449756); format: functional; conditions: Rattus norvegicus;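 further: cell death triggered by IL-1 beta plus TNF-alpha plus IFN-gamma mixture; protective hits raise ATP signal compared with cytokine alone wells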
Vero = assay: cells; format: functional; conditions: Chlorocebus sabaeus
[9] = Luminescence Cell-Based Dose Confirmation HTS to Identify Activators of 5'UTR Stem-Loop Driven Alpha-Synuclein mRNA Translation in H4 Neuroglioblastoma Cells. [Related pubchem assays: 1829 (Project Summary), 1814 (Primary HTS)]; format: functional
[10] = Luminescence Cell-Based Dose Response HTS to Identify Activators of Luciferase Translation or Activity in H4 […] Cells. [Related pubchem assays: 1829 (Project Summary), 1814 (Primary HTS)]; format: functional
H4 = assay: Luminescence Cell-Based Dose Response HTS to Identify Activators of 5'UTR Stem-Loop Driven Prion Protein mRNA Translation in H4 Neuroglioblastoma Cells. [Related pubchem assays: 1829 (Project Summary), 1814 (Primary HTS)]; format: functional; conditions: Homo sapiens
[11] = target: T4, Sentrin-specific protease 8 (Homo sapiens, UniProt Q96LD8); format: functional
T4 sequence (Q96LD8 whole entry): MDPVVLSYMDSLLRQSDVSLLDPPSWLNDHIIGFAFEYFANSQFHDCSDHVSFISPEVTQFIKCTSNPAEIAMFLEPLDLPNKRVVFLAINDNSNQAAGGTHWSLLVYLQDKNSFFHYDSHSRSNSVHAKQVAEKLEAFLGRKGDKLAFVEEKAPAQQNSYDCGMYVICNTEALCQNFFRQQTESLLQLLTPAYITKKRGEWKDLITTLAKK

[12] = target: T4, Sentrin-specific protease 8; format: functional; remark: listed apart in the source
Cysteine protease ATG4B = target: T5, Cysteine protease ATG4B (Homo sapiens, UniProt Q9Y4P1); format: functional;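 further: Fluorescence-based dose-response confirmation assay measuring inhibition of ATG4B activity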
T5 sequence (Q9Y4P1 whole entry): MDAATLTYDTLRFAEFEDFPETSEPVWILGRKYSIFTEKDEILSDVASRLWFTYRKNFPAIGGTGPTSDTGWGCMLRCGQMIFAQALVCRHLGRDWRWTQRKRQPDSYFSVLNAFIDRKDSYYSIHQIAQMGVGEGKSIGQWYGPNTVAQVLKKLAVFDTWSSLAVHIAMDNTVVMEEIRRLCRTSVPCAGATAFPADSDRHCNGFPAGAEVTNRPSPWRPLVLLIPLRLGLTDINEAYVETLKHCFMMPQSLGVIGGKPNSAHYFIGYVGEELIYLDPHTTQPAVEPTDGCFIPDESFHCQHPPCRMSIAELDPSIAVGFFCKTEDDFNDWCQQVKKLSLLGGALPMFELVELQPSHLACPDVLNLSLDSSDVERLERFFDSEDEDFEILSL

Phospholipase A2 = Phospholipase A2 (Homo sapiens, UniProt P04054); format: functional;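 further: confirmatory dose-response counterscreen on phospholipase A2, testing hits that came from an ultra-high-throughput screen for ATG4B inhibitors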
Phospholipase A2, sequence (P04054 whole entry): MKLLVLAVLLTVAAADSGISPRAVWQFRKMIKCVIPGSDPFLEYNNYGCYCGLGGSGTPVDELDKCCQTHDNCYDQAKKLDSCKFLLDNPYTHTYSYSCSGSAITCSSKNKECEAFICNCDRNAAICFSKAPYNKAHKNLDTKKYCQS

[13] = reduction of Shn3 3'UTR-driven luciferase in osteoblasts – cell-based, Clone20 osteoblasts, firefly luciferase, cherry-picked, dose response (AID 624132); format: functional;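 further: firefly luciferase luminescence from reporter carrying the Shn3 3'UTR in osteoblasts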
[14] = loss of viability in HepG2 cells – cell-based, CellTiter-Glo, cherry-picked, cytotoxicity control for Shn3 inhibitor project, dose response (AID 624134); format: functional
[15] = non-specific 3'UTR reporter inhibition in Clone20-Shn3RL – cell-based, Renilla luciferase, cherry-picked, counter-screen for Shn3 inhibitor project, dose response (AID 624133); format: functional

Beta-lactamase (Salmonella choleraesuis (strain SC-B67), UniProt Q5J463), sequence (Q5J463 whole entry): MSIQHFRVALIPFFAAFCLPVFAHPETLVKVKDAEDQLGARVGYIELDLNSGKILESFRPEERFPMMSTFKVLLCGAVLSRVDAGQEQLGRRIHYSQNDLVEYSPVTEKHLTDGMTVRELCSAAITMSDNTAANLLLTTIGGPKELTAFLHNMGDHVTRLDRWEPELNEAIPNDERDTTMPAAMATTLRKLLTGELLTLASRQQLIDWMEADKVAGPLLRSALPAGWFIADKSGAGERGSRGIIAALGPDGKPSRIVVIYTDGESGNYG

In the case of `Cc1ccc(-c2c(C(=O)O)c(C(=O)O)c3n2CSC3)cc1`, the IC50 (Beta-lactamase [1]) is reported as > 59.6 µM (inactive), the IC50 (Beta-lactamase [2]) is reported as > 59.6 µM (inactive) and the IC50 (Beta-lactamase [3]) is reported as 15.7 µM (inactive).

In the case of `O=C(c1ccncc1)N1CC[C@@H]2[C@H](CO)Nc3ccc(Br)cc3[C@@H]21`, the AC50 [4] is reported as 1.17 µM (active).

In the case of `O=C(NCc1nc(-c2ccc(C(F)(F)F)cc2)no1)Nc1cc(Cl)cc(Cl)c1`, the EC50 [5] is reported as 2.88 µM (active), the EC50 (Streptokinase A) is reported as > 150 µM (not active) and the EC50 [6] is reported as 2.43 µM (active). For the same molecule, the EC50 [7] was 4.69 µM (active), the EC50 (Streptococcus) was 8.49 µM (active) and the AC50 [8] was 1.53 µM (active). For the same molecule, the AC50 (INS1) was 7.49 µM (active) and the CC50 (Vero) was 8.95 µM (active).

With `O=C(/C=C/NNC(=O)c1ccc(Cl)cc1)c1ccccc1` the EC50 [9] was > 120 µM (not active), the EC50 [10] was > 120 µM (not active) and the EC50 (H4) was 49.6 µM (active). The IC50 [11] was > 100 µM (inactive) and the IC50 [12] was 37.4 µM (active).

For `CCCc1cc(=O)oc2c3c(cc(OCC(=O)N4CCC[C@H]4C(=O)O)c12)OC(C)(C)CC3`, the IC50 (Beta-lactamase [1]) was > 59.6 µM (inactive), the IC50 (Beta-lactamase [2]) was > 59.6 µM (inactive) and the IC50 (Beta-lactamase [3]) was > 59.6 µM (inactive).

With `CCc1ccc2c(c1)C(c1ccc([N+](=O)[O-])cc1)=NNC(c1ccccc1)=N2` the IC50 (Cysteine protease ATG4B) was 0.399 µM (active) and the IC50 (Phospholipase A2) was 0.357 µM (active).

With `CCOc1cc(CNCc2ccccc2)ccc1OCc1ccc(Cl)cc1` the EC50 [6] was 2.88 µM (active), the EC50 [7] was > 16 µM (not active) and the AC50 [13] was 6.69 µM (active). For the same molecule, the AC50 [14] was 19.7 µM (active) and the AC50 [15] was 5.41 µM (active).
